{"source": "ChEMBL document CHEMBL1136592", "about": "“Orally efficacious NR2B-selective NMDA receptor antagonists” (Bioorg Med Chem Lett, 2003)", "key": {"[1]": {"target": "T1, Glutamate receptor ionotropic, NMDA 2B (Homo sapiens, UniProt Q05586+Q13224)", "T1 sequence (Q13224 whole entry, one chain of several)": "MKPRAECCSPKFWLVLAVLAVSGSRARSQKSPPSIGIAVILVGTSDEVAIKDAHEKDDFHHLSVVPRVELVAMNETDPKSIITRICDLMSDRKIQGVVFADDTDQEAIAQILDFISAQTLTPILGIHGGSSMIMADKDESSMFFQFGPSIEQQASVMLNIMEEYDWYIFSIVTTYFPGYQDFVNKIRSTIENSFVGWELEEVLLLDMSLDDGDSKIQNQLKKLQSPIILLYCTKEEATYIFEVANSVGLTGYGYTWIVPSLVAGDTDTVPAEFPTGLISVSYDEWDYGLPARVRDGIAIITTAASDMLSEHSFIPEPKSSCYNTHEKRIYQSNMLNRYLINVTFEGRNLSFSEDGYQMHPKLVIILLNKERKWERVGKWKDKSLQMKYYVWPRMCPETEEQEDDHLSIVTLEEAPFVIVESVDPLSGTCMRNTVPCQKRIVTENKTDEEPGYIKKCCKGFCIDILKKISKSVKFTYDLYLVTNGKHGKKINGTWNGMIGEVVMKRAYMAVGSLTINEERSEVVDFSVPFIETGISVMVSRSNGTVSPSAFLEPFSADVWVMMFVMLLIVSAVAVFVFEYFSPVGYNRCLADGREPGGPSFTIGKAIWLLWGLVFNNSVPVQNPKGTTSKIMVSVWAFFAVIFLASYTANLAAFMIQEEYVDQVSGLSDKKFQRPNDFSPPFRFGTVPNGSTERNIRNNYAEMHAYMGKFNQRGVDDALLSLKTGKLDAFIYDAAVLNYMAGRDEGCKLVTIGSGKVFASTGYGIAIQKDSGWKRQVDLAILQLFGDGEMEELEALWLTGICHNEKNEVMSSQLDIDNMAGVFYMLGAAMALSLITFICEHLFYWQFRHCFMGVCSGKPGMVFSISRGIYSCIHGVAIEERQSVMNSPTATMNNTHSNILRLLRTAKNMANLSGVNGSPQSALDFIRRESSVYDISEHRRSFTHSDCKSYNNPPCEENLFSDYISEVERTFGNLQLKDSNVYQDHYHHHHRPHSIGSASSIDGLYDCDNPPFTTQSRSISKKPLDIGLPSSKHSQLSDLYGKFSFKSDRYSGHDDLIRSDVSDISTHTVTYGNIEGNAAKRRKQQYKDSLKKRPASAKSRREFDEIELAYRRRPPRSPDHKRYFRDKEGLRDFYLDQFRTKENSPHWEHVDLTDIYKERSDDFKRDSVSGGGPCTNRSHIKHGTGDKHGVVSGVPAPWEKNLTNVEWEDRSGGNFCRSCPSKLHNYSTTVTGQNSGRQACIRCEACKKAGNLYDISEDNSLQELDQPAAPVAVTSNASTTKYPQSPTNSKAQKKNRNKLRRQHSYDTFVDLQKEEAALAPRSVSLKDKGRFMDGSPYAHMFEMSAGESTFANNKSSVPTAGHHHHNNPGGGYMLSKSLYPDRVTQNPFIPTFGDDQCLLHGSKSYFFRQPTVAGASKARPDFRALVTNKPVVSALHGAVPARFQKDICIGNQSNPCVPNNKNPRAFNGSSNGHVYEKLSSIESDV", "experiment": "Displacement of NMDA receptor-specific [3H]ifenprodil binding to recombinant human NMDA receptor, NR2B subtype expressed in L cells", "type": "cell-based"}, "[2]": {"experiment": "Bioavailability in rat", "type": "ADME, organism-based", "details": "in vivo"}, "[3]": {"experiment": "Half life period in rat", "type": "ADME, organism-based", "details": "in vivo"}, "[4]": {"target": "Glutamate receptor ionotropic, NMDA 2A (Homo sapiens, UniProt Q05586+Q12879)", "sequence (Q12879 whole entry, one chain of several)": "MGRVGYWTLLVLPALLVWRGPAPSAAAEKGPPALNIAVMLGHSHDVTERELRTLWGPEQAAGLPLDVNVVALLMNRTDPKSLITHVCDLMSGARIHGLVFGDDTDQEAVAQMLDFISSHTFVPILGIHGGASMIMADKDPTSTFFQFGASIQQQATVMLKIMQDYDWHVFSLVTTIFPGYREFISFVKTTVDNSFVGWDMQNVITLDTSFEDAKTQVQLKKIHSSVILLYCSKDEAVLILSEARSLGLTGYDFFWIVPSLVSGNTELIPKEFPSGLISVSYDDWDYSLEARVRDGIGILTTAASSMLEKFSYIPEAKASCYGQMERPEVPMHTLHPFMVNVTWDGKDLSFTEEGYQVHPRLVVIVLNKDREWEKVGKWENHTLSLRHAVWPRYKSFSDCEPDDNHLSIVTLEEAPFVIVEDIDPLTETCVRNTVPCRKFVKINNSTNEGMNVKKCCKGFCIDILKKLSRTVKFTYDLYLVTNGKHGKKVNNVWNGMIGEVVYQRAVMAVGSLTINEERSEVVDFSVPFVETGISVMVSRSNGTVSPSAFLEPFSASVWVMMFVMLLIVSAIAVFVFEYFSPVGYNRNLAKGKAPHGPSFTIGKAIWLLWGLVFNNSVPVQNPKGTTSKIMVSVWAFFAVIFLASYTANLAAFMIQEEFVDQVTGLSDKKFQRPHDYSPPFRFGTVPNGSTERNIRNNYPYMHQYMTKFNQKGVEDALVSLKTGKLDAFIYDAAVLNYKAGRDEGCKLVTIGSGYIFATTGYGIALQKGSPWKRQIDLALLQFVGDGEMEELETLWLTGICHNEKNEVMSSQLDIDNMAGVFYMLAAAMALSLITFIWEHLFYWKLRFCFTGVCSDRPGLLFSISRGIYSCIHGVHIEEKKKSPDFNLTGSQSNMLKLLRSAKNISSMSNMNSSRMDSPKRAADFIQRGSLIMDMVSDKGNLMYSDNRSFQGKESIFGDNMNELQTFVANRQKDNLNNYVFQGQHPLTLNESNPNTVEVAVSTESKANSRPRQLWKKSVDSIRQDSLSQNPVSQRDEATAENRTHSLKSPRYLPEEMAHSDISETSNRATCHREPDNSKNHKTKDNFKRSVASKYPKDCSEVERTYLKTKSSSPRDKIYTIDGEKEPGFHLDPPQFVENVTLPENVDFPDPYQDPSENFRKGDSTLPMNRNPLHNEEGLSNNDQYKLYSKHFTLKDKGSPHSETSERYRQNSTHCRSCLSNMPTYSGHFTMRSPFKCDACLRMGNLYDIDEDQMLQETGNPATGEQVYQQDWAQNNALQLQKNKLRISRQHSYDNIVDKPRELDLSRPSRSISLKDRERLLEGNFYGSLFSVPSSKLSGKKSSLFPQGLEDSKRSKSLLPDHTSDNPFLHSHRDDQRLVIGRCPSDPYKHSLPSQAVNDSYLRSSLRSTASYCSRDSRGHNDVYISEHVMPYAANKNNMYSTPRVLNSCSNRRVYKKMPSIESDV", "experiment": "Inhibition of the response to NMDA glutamate/glycine receptor NR2A subtype was determined using FLIPR assay"}, "[5]": {"target": "T1, Glutamate receptor ionotropic, NMDA 2B", "experiment": "Inhibition of the response to NMDA glutamate/glycine receptor NR2B subtype was determined using FLIPR assay"}, "Rattus norvegicus": {"tested_on": "Rattus norvegicus", "experiment": "Efficacy was determined by scoring behavioral responses to noxious stimuli in carrageenan-induced hyperalgesia assay in the rat after oral administration", "type": "functional"}}}
{"compound": "NC(=NCc1cccc(Cl)c1)c1ccccc1F", "values": [{"measurement": "Ki", "setting": "[1]", "value": "> 15000", "unit": "nM"}]}
{"compound": "N=C(/C=C/c1ccccc1)NCc1ccccc1", "values": [{"measurement": "Ki", "setting": "[1]", "value": 9, "unit": "nM"}]}
{"compound": "NC(=NCc1ccccc1C(F)(F)F)c1ccc(OC(F)(F)F)cc1", "values": [{"measurement": "bioavailability", "setting": "[2]", "value": 100, "unit": "%"}, {"measurement": "half-life", "setting": "[3]", "value": 2.45, "unit": "h"}, {"measurement": "IC50", "setting": "[4]", "value": "> 10000", "unit": "nM"}, {"measurement": "IC50", "setting": "[5]", "value": 47, "unit": "nM"}, {"measurement": "Ki", "setting": "[1]", "value": 72, "unit": "nM"}, {"measurement": "ED50", "setting": "Rattus norvegicus", "value": 5.5, "unit": "mg/kg"}]}
{"compound": "N=C(NCc1ccccc1)c1ccc(C(F)(F)F)cc1", "values": [{"measurement": "IC50", "setting": "[5]", "value": 360, "unit": "nM"}, {"measurement": "Ki", "setting": "[1]", "value": 480, "unit": "nM"}]}
{"compound": "NC(=NCc1cccc(Cl)c1)c1ccc(C(F)(F)F)cc1", "values": [{"measurement": "IC50", "setting": "[5]", "value": 32, "unit": "nM"}, {"measurement": "Ki", "setting": "[1]", "value": 20, "unit": "nM"}]}
{"compound": "COc1ccccc1C/N=C(\\N)c1ccc(OC(F)(F)F)cc1", "values": [{"measurement": "IC50", "setting": "[5]", "value": 4.1, "unit": "nM"}, {"measurement": "Ki", "setting": "[1]", "value": 5.7, "unit": "nM"}]}
{"compound": "Cc1cc(C)cc(C/N=C(\\N)c2ccc(OC(F)(F)F)cc2)c1", "values": [{"measurement": "bioavailability", "setting": "[2]", "value": 4, "unit": "%"}, {"measurement": "half-life", "setting": "[3]", "value": 1.53, "unit": "h"}, {"measurement": "IC50", "setting": "[4]", "value": "> 10000", "unit": "nM"}, {"measurement": "IC50", "setting": "[5]", "value": 4.2, "unit": "nM"}, {"measurement": "Ki", "setting": "[1]", "value": 1.2, "unit": "nM"}, {"measurement": "ED50", "setting": "Rattus norvegicus", "value": "> 30", "unit": "mg/kg"}]}
{"compound": "NC(=NCc1cccc(Cl)c1)c1ccc(Cl)c(Cl)c1", "values": [{"measurement": "bioavailability", "setting": "[2]", "value": 44, "unit": "%"}, {"measurement": "half-life", "setting": "[3]", "value": 1.5, "unit": "h"}, {"measurement": "IC50", "setting": "[4]", "value": "> 10000", "unit": "nM"}, {"measurement": "IC50", "setting": "[5]", "value": 110, "unit": "nM"}, {"measurement": "Ki", "setting": "[1]", "value": 16, "unit": "nM"}, {"measurement": "ED50", "setting": "Rattus norvegicus", "value": 14, "unit": "mg/kg"}]}
{"compound": "N=C(NCc1cccc(Cl)c1)c1ccc(F)cc1", "values": [{"measurement": "IC50", "setting": "[5]", "value": 450, "unit": "nM"}, {"measurement": "Ki", "setting": "[1]", "value": 600, "unit": "nM"}]}
{"compound": "COc1ccc(C/N=C(\\N)c2ccc(OC(F)(F)F)cc2)cc1", "values": [{"measurement": "Ki", "setting": "[1]", "value": 1100, "unit": "nM"}]}
{"compound": "N=C(NCc1cc(Cl)cc(Cl)c1)c1ccc(OC(F)(F)F)cc1", "values": [{"measurement": "bioavailability", "setting": "[2]", "value": 68, "unit": "%"}, {"measurement": "half-life", "setting": "[3]", "value": 7, "unit": "h"}, {"measurement": "IC50", "setting": "[4]", "value": "> 10000", "unit": "nM"}, {"measurement": "IC50", "setting": "[5]", "value": 24, "unit": "nM"}, {"measurement": "Ki", "setting": "[1]", "value": 0.6, "unit": "nM"}, {"measurement": "ED50", "setting": "Rattus norvegicus", "value": 16, "unit": "mg/kg"}]}
{"compound": "N=C(NCc1ccccc1)c1ccc(OC(F)(F)F)cc1", "values": [{"measurement": "IC50", "setting": "[5]", "value": 46, "unit": "nM"}, {"measurement": "Ki", "setting": "[1]", "value": 120, "unit": "nM"}]}
{"compound": "N=C(NCc1cccc(Cl)c1)c1ccc(Cl)cc1", "values": [{"measurement": "IC50", "setting": "[5]", "value": 160, "unit": "nM"}, {"measurement": "Ki", "setting": "[1]", "value": 63, "unit": "nM"}]}
{"compound": "N=C(NCc1ccccc1OC(F)(F)F)c1ccc(Cl)c(Cl)c1", "values": [{"measurement": "bioavailability", "setting": "[2]", "value": 31, "unit": "%"}, {"measurement": "half-life", "setting": "[3]", "value": 3.05, "unit": "h"}, {"measurement": "IC50", "setting": "[4]", "value": "> 10000", "unit": "nM"}, {"measurement": "IC50", "setting": "[5]", "value": 57, "unit": "nM"}, {"measurement": "Ki", "setting": "[1]", "value": 12, "unit": "nM"}, {"measurement": "ED50", "setting": "Rattus norvegicus", "value": 7.5, "unit": "mg/kg"}]}
{"compound": "NC(=NCc1ccccc1)c1ccc(Cl)cc1", "values": [{"measurement": "IC50", "setting": "[5]", "value": 720, "unit": "nM"}, {"measurement": "Ki", "setting": "[1]", "value": 970, "unit": "nM"}]}
{"compound": "Cc1cc(C)cc(C/N=C(\\N)c2ccc(C(F)(F)F)cc2)c1", "values": [{"measurement": "IC50", "setting": "[5]", "value": 8.7, "unit": "nM"}, {"measurement": "Ki", "setting": "[1]", "value": 3.9, "unit": "nM"}]}
{"compound": "NC(=NCc1cccc(Cl)c1)c1cccc(Cl)c1", "values": [{"measurement": "IC50", "setting": "[5]", "value": 420, "unit": "nM"}, {"measurement": "Ki", "setting": "[1]", "value": 800, "unit": "nM"}]}
{"compound": "N=C(NCc1cccc(C(F)(F)F)c1)c1ccc(C(F)(F)F)cc1", "values": [{"measurement": "IC50", "setting": "[5]", "value": 660, "unit": "nM"}, {"measurement": "Ki", "setting": "[1]", "value": 700, "unit": "nM"}]}
{"compound": "N=C(NCc1ccccc1)c1ccc(-c2ccccc2)cc1", "values": [{"measurement": "Ki", "setting": "[1]", "value": 1800, "unit": "nM"}]}
{"compound": "NC(=NCc1cccc(Cl)c1)c1ccccc1Cl", "values": [{"measurement": "Ki", "setting": "[1]", "value": 3900, "unit": "nM"}]}
{"compound": "COc1cccc(C/N=C(\\N)c2ccc(OC(F)(F)F)cc2)c1", "values": [{"measurement": "IC50", "setting": "[5]", "value": 9.7, "unit": "nM"}, {"measurement": "Ki", "setting": "[1]", "value": 23, "unit": "nM"}]}
{"compound": "NC(=NCc1ccccc1)c1ccccc1", "values": [{"measurement": "Ki", "setting": "[1]", "value": "> 15000", "unit": "nM"}]}
{"compound": "N=C(NCc1cccc(Cl)c1)c1cccc(F)c1", "values": [{"measurement": "Ki", "setting": "[1]", "value": 2000, "unit": "nM"}]}
{"compound": "N=C(NCc1ccccc1Cl)c1ccc(C(F)(F)F)cc1", "values": [{"measurement": "IC50", "setting": "[5]", "value": 48, "unit": "nM"}, {"measurement": "Ki", "setting": "[1]", "value": 56, "unit": "nM"}]}
